This experiment relates to Heterodera schachtii. Kind of experiment: Heterodera schachtii (sugar beet cyst nematode), nematicide, contact activity: juvenile paralysis in 16-well assay plates. It is filed as in vivo. As to conditions: 200 ppm, approx. 500 juveniles per well, 24 hours incubation at 25° C. in darkness, read-out: nematode immobilization compared to the untreated control. The protocol: Heterodera schachtii (Sugar Beet Cyst Nematode), Nematicide, Contact Activity
The tested application rate of each compound was 200 ppm. All solutions were brought to a concentration of 400 ppm, respectively, as they were subsequently diluted by adding the equivalent amount of water containing juvenile nematodes. After preparation of the suspensions, 1 ml of each suspension and concentration was transferred to 16-well assay plates with a total of three replicates per treatment. Approximately 500 juveniles of Heterodera schachtii were added in 1 ml of water to each well. Nematodes in water served as controls. The plates were placed in a dark box and stored at room temperature. Nematode paralysis was determined after 24 hours incubation at 25° C. in darkness.

The structures appear in SMILES notation.

As for `O=C(N[C@H]1CC[C@H]1c1ccc(Cl)cc1Cl)c1nccnc1Cl` [Compound 61.3, 3-chloro-N-[(1S,2S)-2-(2,4-dichlorophenyl)cyclobutyl]pyrazine-2-carboxamide], the pest or weed control at 200 ppm was more than 75%. Take `O=C(N[C@H]1CC[C@H]1c1ccc(Cl)cc1Cl)c1ncccc1C(F)(F)F` [Compound 61.4, N-[(1S,2S)-2-(2,4-dichlorophenyl)cyclobutyl]-3-(trifluoromethyl)pyridine-2-carboxamide]: the pest or weed control at 200 ppm is more than 75%. The result for `COc1cccnc1C(=O)N[C@H]1CC[C@H]1c1ccc(Cl)cc1` [Compound 61.11, N-[(1S,2S)-2-(4-chlorophenyl)cyclobutyl]-3-methoxypyridine-2-carboxamide] reads more than 75%; that for `O=C(N[C@H]1CC[C@H]1c1ccc(Cl)cc1)c1sccc1Br` [Compound 61.14, 3-bromo-N-[(1S,2S)-2-(4-chlorophenyl)cyclobutyl]thiophene-2-carboxamide], more than 75%; that for `O=C(N[C@H]1CC[C@H]1c1ccc(Cl)cc1)c1ncccc1Br` [Compound 61.15, 3-bromo-N-[(1S,2S)-2-(4-chlorophenyl)cyclobutyl]pyridine-2-carboxamide], more than 75%. The result for `O=C(N[C@H]1CC[C@H]1c1ccc(Cl)cc1)c1ccccc1Br` [Compound 61.21, 2-bromo-N-[(1S,2S)-2-(4-chlorophenyl)cyclobutyl]benzamide] reads more than 75%.

For `O=C(N[C@H]1CC[C@H]1c1ccc(Cl)cc1)c1c(F)cccc1Cl` [Compound 61.22, 2-chloro-N-[(1S,2S)-2-(4-chlorophenyl)cyclobutyl]-6-fluorobenzamide], the pest or weed control at 200 ppm was more than 75%.

On to `Cc1ncccc1C(=O)N[C@H]1CC[C@H]1c1ccc(Cl)cc1` [Compound 61.23, N-[(1S,2S)-2-(4-chlorophenyl)cyclobutyl]-2-methylpyridine-3-carboxamide], for which the pest or weed control at 200 ppm was more than 75%.

On to `COc1cccc(F)c1C(=O)N[C@H]1CC[C@H]1c1ccc(Cl)cc1` [Compound 61.24, N-[(1S,2S)-2-(4-chlorophenyl)cyclobutyl]-2-fluoro-6-methoxybenzamide], for which the pest or weed control at 200 ppm is more than 75%. Turning to `Cc1cccc(F)c1C(=O)N[C@H]1CC[C@H]1c1ccc(Cl)cc1` [Compound 61.25, N-[(1S,2S)-2-(4-chlorophenyl)cyclobutyl]-2-fluoro-6-methylbenzamide], the pest or weed control at 200 ppm was more than 75%.

On to `Cc1nccnc1C(=O)N[C@H]1CC[C@H]1c1ccc(Cl)cc1` [Compound 61.26, N-[(1S,2S)-2-(4-chlorophenyl)cyclobutyl]-3-methylpyrazine-2-carboxamide], for which the pest or weed control at 200 ppm was more than 75%.

Turning to `O=C(N[C@H]1CC[C@H]1c1ccc(Cl)cc1)c1sccc1Cl` [Compound 61.36, 3-chloro-N-[(1S,2S)-2-(4-chlorophenyl)cyclobutyl]thiophene-2-carboxamide], the pest or weed control at 200 ppm is more than 75%. The result for `O=C(N[C@H]1CC[C@H]1c1ccc(Cl)cc1)c1ncccc1Cl` [Compound 61.46, 3-chloro-N-[(1S,2S)-2-(4-chlorophenyl)cyclobutyl]pyridine-2-carboxamide] reads more than 75%; that for `O=C(N[C@H]1CC[C@H]1c1ccc(Cl)cc1)c1ncccn1` [Compound 61.47, N-[(1S,2S)-2-(4-chlorophenyl)cyclobutyl]pyrimidine-2-carboxamide], more than 75%; that for `O=C(N[C@H]1CC[C@H]1c1ccc(Cl)cc1)c1ccsc1Cl` [Compound 61.52, 2-chloro-N-[(1S,2S)-2-(4-chlorophenyl)cyclobutyl]thiophene-3-carboxamide], more than 75%. Then `O=C(N[C@H]1CC[C@H]1c1ccc(Cl)cc1)c1ccsc1I` [Compound 61.53, N-[(1S,2S)-2-(4-chlorophenyl)cyclobutyl]-2-iodothiophene-3-carboxamide], with more than 75%. Then `O=C(N[C@H]1CC[C@H]1c1ccc(Cl)cc1)c1ccsc1C(F)(F)F` [Compound 61.54, N-[(1S,2S)-2-(4-chlorophenyl)cyclobutyl]-2-(trifluoromethyl)thiophene-3-carboxamide], with more than 75%. Take `COc1cccnc1C(=O)N[C@H]1CC[C@H]1c1ccc(Cl)cc1Cl` [Compound 61.56, N-[(1S,2S)-2-(2,4-dichlorophenyl)cyclobutyl]-3-methoxypyridine-2-carboxamide]: the pest or weed control at 200 ppm is more than 75%.

In the case of `COc1ccccc1C(=O)N[C@H]1CC[C@H]1c1ccc(Cl)cc1Cl` [Compound 61.58, N-[(1S,2S)-2-(2,4-dichlorophenyl)cyclobutyl]-2-methoxybenzamide], the pest or weed control at 200 ppm is more than 75%. Then `O=C(N[C@H]1CC[C@H]1c1ccc(Cl)cc1Cl)c1sccc1Br` [Compound 61.59, 3-bromo-N-[(1S,2S)-2-(2,4-dichlorophenyl)cyclobutyl]thiophene-2-carboxamide], with more than 75%. The result for `Cc1ccccc1C(=O)N[C@H]1CC[C@H]1c1ccc(Cl)cc1Cl` [Compound 61.62, N-[(1S,2S)-2-(2,4-dichlorophenyl)cyclobutyl]-2-methylbenzamide] reads more than 75%.

Turning to `O=C(N[C@H]1CC[C@H]1c1ccc(Cl)cc1Cl)c1ccccc1F` [Compound 61.65, N-[(1S,2S)-2-(2,4-dichlorophenyl)cyclobutyl]-2-fluorobenzamide], the pest or weed control at 200 ppm was more than 75%. Then `Cc1nccnc1C(=O)N[C@H]1CC[C@H]1c1ccc(Cl)cc1Cl` [Compound 61.70, N-[(1S,2S)-2-(2,4-dichlorophenyl)cyclobutyl]-3-methylpyrazine-2-carboxamide], with more than 75%; and `O=C(N[C@H]1CC[C@H]1c1ccc(Cl)cc1Cl)c1ccc[nH]1` [Compound 61.72, N-[(1S,2S)-2-(2,4-dichlorophenyl)cyclobutyl]-1H-pyrrole-2-carboxamide], with more than 75%; and `Cc1ncoc1C(=O)N[C@H]1CC[C@H]1c1ccc(Cl)cc1Cl` [Compound 61.73, N-[(1S,2S)-2-(2,4-dichlorophenyl)cyclobutyl]-4-methyl-1,3-oxazole-5-carboxamide], with more than 75%. On to `Cc1nscc1C(=O)N[C@H]1CC[C@H]1c1ccc(Cl)cc1Cl` [Compound 61.74, N-[(1S,2S)-2-(2,4-dichlorophenyl)cyclobutyl]-3-methyl-1,2-thiazole-4-carboxamide], for which the pest or weed control at 200 ppm was more than 75%. The result for `O=C(N[C@H]1CC[C@H]1c1ccc(Cl)cc1Cl)c1sccc1Cl` [Compound 61.79, 3-chloro-N-[(1S,2S)-2-(2,4-dichlorophenyl)cyclobutyl]thiophene-2-carboxamide] reads more than 75%. `O=C(N[C@H]1CC[C@H]1c1ccc(Cl)cc1Cl)c1ccccc1OC(F)(F)F` [Compound 61.81, N-[(1S,2S)-2-(2,4-dichlorophenyl)cyclobutyl]-2-(trifluoromethoxy)benzamide]: the pest or weed control at 200 ppm is more than 75%.

On to `Cc1oncc1C(=O)N[C@H]1CC[C@H]1c1ccc(Cl)cc1Cl` [Compound 61.83, N-[(1S,2S)-2-(2,4-dichlorophenyl)cyclobutyl]-5-methyl-1,2-oxazole-4-carboxamide], for which the pest or weed control at 200 ppm is more than 75%.
